Measurements: paper PMC3898329, “Human junctophilin-2 undergoes a structural rearrangement upon binding PtdIns(3,4,5)P3 and the S101R mutation identified in hypertrophic cardiomyopathy obviates this response” (Biochemical Journal, 2013)
Changes are numbered by the printed parent chain.

Legend:
[1] = target: T1, full-length human JP2 (junctophilin-2) (Homo sapiens, UniProt Q9BR39); assay: protein-lipid overlay; conditions: weak binding
T1 construct: gene JPH2; full-length, N-terminal MBP tag removed with PreScission protease; E. coli BL21; ~75 kDa on SDS/PAGE; stated as monomeric
T1 sequence (Q9BR39 1-696): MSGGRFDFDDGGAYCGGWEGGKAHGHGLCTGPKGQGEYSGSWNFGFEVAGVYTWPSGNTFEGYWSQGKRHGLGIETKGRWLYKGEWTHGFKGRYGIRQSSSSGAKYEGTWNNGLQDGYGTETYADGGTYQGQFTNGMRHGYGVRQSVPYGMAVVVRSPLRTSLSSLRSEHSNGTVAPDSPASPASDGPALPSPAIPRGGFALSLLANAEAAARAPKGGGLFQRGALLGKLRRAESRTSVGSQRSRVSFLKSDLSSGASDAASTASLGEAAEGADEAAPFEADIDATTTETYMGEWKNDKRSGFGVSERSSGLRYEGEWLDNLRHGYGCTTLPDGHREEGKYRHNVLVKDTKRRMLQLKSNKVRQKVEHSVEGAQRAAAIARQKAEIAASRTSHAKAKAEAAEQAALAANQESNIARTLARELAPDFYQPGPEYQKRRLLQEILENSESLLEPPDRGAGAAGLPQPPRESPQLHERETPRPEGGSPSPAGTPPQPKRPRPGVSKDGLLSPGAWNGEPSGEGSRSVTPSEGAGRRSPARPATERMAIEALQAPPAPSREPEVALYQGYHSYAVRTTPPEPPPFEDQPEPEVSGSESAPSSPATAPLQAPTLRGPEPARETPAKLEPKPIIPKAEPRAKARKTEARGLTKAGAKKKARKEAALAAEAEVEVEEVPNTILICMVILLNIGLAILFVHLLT

[2] = target: T2, JP2^1–452 (N-terminal domain) (Homo sapiens, UniProt Q9BR39); assay: QCM-D, supported lipid bilayer, one-site isotherm; type: binding; conditions: read-out: DOPC/DOPE/POPC/DOPS (55:15:10:20, by vol.) / JP2^1-452
T2 construct: gene JPH2; N-terminal segment, residues 1-452, N-terminal MBP tag removed with PreScission protease; E. coli BL21; ~50 kDa on SDS/PAGE
T2 sequence (Q9BR39 1-452): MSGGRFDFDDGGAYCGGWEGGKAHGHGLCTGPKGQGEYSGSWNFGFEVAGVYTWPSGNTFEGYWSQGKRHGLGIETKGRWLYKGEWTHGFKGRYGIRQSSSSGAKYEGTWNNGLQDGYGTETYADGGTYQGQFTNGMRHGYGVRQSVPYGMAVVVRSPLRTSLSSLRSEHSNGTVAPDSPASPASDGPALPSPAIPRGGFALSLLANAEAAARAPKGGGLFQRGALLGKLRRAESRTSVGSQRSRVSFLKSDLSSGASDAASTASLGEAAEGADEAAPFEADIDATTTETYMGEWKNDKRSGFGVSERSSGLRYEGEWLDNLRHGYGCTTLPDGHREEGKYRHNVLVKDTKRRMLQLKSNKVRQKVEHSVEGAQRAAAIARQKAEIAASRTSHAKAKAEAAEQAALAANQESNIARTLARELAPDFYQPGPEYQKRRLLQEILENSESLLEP
Source text: QCM-D, supported lipid bilayer, one-site isotherm on JP2^1–452 (N-terminal domain)

[3] = target: T1, full-length human JP2 (junctophilin-2); assay: QCM-D, supported lipid bilayer, one-site isotherm; type: binding; conditions: read-out: DOPC/DOPE/POPC/DOPS (55:15:10:20, by vol.) JP2
Source text: (§1) QCM-D, supported lipid bilayer, one-site isotherm on full-length human JP2 (junctophilin-2)

[4] = target: T3, full-length human JP2 (junctophilin-2) (Homo sapiens, UniProt Q9BR39, S101R); assay: QCM-D, supported lipid bilayer, one-site isotherm; type: binding; conditions: read-out: DOPC/DOPE/POPC/DOPS (55:15:10:20, by vol.) / S101R
T3 construct: gene JPH2; full-length, N-terminal MBP tag removed with PreScission protease; E. coli BL21; ~75 kDa on SDS/PAGE; stated as monomeric
T3 sequence (Q9BR39 1-696 S101R): T1 sequence (Q9BR39 1-696) with S101R
Source text: as §1

Row | SMILES | protein-lipid overlay [1] | Kd [2] [nM] | Kd [3] [nM] | Kd [4] [nM]
1 | CCCCCCCC/C=C\CCCCCCCC(=O)OC[C@H](COP(=O)(O)OCC(O)CO)OC(=O)CCCCCCC/C=C\CCCCCCCC (stereo partly shown) [DOPG, 1,2-dioleoyl-sn-glycero-3-phosphoglycerol] | there is only weak binding of JP2 to DOPG |  |  | 
2 | CCCCCCCC/C=C\CCCCCCCC(=O)OC[C@H](COP(=O)(O)OC[C@H](N)C(=O)O)OC(=O)CCCCCCC/C=C\CCCCCCCC [DOPS, 1,2-dioleoyl-sn-glycero-3-phospho-L-serine] |  | 992 ± 80 | 483 ± 54 | 371 ± 31
